The results in this text go back to the OligoGym collection.

Oligonucleotides are written 5' to 3', each unit as a sugar letter and its base; * is a phosphorothioate linkage, no mark a phosphodiester; rarer units and linkages stand in square brackets, end groups in braces. Plain capitals give the bases only. Oligonucleotides are given in HELM: sugar(base)linkage, 5' to 3'; d 2'-deoxyribose, r ribose, m 2'-O-methylribose, p phosphate. ss, as = sense and antisense strand; d = 2'-deoxy (DNA); r = 2'-OH (RNA)
Also: test concentration or dose not given here.

For one series, the target named is UBE2D3. In words: reporter assay of Huesken 2005. The following applies: siRNA.
As to “RNA1{r(A)p.r(A)p.r(G)p.r(C)p.r(C)p.r(A)p.r(C)p.r(A)p.r(A)p.r(U)p.r(U)p.r(A)p.r(U)p.r(G)p.r(G)p.r(G)p.r(A)p.r(C)p.r(C)p.d(T)p.d(T)}|RNA2{r(G)p.r(G)p.r(U)p.r(C)p.r(C)p.r(C)p.r(A)p.r(U)p.r(A)p.r(A)p.r(U)p.r(U)p.r(G)p.r(U)p.r(G)p.r(G)p.r(C)p.r(U)p.r(U)p.d(G)p.d(C)}$$$RNA1{StrandType:ss}|RNA2{StrandType:as}$”, the normalised inhibition (eCFP-eYFP dual reporter) came to 52%.

With “RNA1{r(A)p.r(A)p.r(G)p.r(G)p.r(U)p.r(U)p.r(G)p.r(C)p.r(A)p.r(U)p.r(U)p.r(U)p.r(A)p.r(C)p.r(A)p.r(A)p.r(C)p.r(A)p.r(A)p.d(T)p.d(T)}|RNA2{r(U)p.r(U)p.r(G)p.r(U)p.r(U)p.r(G)p.r(U)p.r(A)p.r(A)p.r(A)p.r(U)p.r(G)p.r(C)p.r(A)p.r(A)p.r(C)p.r(C)p.r(U)p.r(U)p.d(A)p.d(G)}$$$RNA1{StrandType:ss}|RNA2{StrandType:as}$”, the normalised inhibition (eCFP-eYFP dual reporter) was 83%.

Regarding “RNA1{r(A)p.r(A)p.r(U)p.r(G)p.r(A)p.r(C)p.r(A)p.r(G)p.r(C)p.r(C)p.r(C)p.r(A)p.r(U)p.r(A)p.r(U)p.r(C)p.r(A)p.r(A)p.r(G)p.d(T)p.d(T)}|RNA2{r(C)p.r(U)p.r(U)p.r(G)p.r(A)p.r(U)p.r(A)p.r(U)p.r(G)p.r(G)p.r(G)p.r(C)p.r(U)p.r(G)p.r(U)p.r(C)p.r(A)p.r(U)p.r(U)p.d(A)p.d(G)}$$$RNA1{StrandType:ss}|RNA2{StrandType:as}$”, the normalised inhibition (eCFP-eYFP dual reporter) amounted to 80%.

As for “RNA1{r(A)p.r(A)p.r(U)p.r(U)p.r(C)p.r(A)p.r(U)p.r(U)p.r(U)p.r(U)p.r(C)p.r(C)p.r(U)p.r(A)p.r(C)p.r(A)p.r(G)p.r(A)p.r(C)p.d(T)p.d(T)}|RNA2{r(G)p.r(U)p.r(C)p.r(U)p.r(G)p.r(U)p.r(A)p.r(G)p.r(G)p.r(A)p.r(A)p.r(A)p.r(A)p.r(U)p.r(G)p.r(A)p.r(A)p.r(U)p.r(U)p.d(G)p.d(T)}$$$RNA1{StrandType:ss}|RNA2{StrandType:as}$”, the normalised inhibition (eCFP-eYFP dual reporter) amounted to 62.3%.

Consider “RNA1{r(A)p.r(C)p.r(A)p.r(A)p.r(U)p.r(U)p.r(C)p.r(A)p.r(U)p.r(U)p.r(U)p.r(U)p.r(C)p.r(C)p.r(U)p.r(A)p.r(C)p.r(A)p.r(G)p.d(T)p.d(T)}|RNA2{r(C)p.r(U)p.r(G)p.r(U)p.r(A)p.r(G)p.r(G)p.r(A)p.r(A)p.r(A)p.r(A)p.r(U)p.r(G)p.r(A)p.r(A)p.r(U)p.r(U)p.r(G)p.r(U)p.d(C)p.d(A)}$$$RNA1{StrandType:ss}|RNA2{StrandType:as}$”, for which the normalised inhibition (eCFP-eYFP dual reporter) stood at 76.2%.

For “RNA1{r(A)p.r(C)p.r(G)p.r(G)p.r(A)p.r(U)p.r(C)p.r(U)p.r(A)p.r(U)p.r(A)p.r(A)p.r(A)p.r(A)p.r(C)p.r(A)p.r(G)p.r(A)p.r(C)p.d(T)p.d(T)}|RNA2{r(G)p.r(U)p.r(C)p.r(U)p.r(G)p.r(U)p.r(U)p.r(U)p.r(U)p.r(A)p.r(U)p.r(A)p.r(G)p.r(A)p.r(U)p.r(C)p.r(C)p.r(G)p.r(U)p.d(G)p.d(C)}$$$RNA1{StrandType:ss}|RNA2{StrandType:as}$”, the normalised inhibition (eCFP-eYFP dual reporter) was determined as 68.3%.

In the case of “RNA1{r(A)p.r(C)p.r(U)p.r(A)p.r(C)p.r(C)p.r(C)p.r(C)p.r(U)p.r(U)p.r(C)p.r(A)p.r(A)p.r(A)p.r(C)p.r(C)p.r(A)p.r(C)p.r(C)p.d(T)p.d(T)}|RNA2{r(G)p.r(G)p.r(U)p.r(G)p.r(G)p.r(U)p.r(U)p.r(U)p.r(G)p.r(A)p.r(A)p.r(G)p.r(G)p.r(G)p.r(G)p.r(U)p.r(A)p.r(G)p.r(U)p.d(C)p.d(T)}$$$RNA1{StrandType:ss}|RNA2{StrandType:as}$”, the normalised inhibition (eCFP-eYFP dual reporter) amounted to 63.1%.

In the next series the target is UBE2W. Nature of the series: reporter assay of Huesken 2005. Conditions: siRNA. Background: Reporter assays use an easily measured gene product as a stand-in for the process of interest.
On to “sense rGrUrUrCrArArArArUrUrCrArArUrUrArCrArCdTdT / antisense rGrUrGrUrArArUrUrGrArArUrUrUrUrGrArArCdAdC”, for which the normalised inhibition (eCFP-eYFP dual reporter) is 73.6%.

“sense rGrUrUrCrArUrCrCrUrCrArUrGrUrUrUrArUrAdTdT / antisense rUrArUrArArArCrArUrGrArGrGrArUrGrArArCdAdG”: the normalised inhibition (eCFP-eYFP dual reporter) came to 105%.

Consider “sense rUrArArCrArArGrArArUrCrCrArArArGrArArAdTdT / antisense rUrUrUrCrUrUrUrGrGrArUrUrCrUrUrGrUrUrAdCdA”, for which the normalised inhibition (eCFP-eYFP dual reporter) was found to be 115%.

Consider “sense rUrArArCrArGrArArGrArCrUrGrGrUrCrCrCrCdTdT / antisense rGrGrGrGrArCrCrArGrUrCrUrUrCrUrGrUrUrAdGdA”, for which the normalised inhibition (eCFP-eYFP dual reporter) is 64.7%.

With “sense rUrArCrCrUrUrArUrArUrGrArArGrGrGrGrArAdTdT / antisense rUrUrCrCrCrCrUrUrCrArUrArUrArArGrGrUrAdCdC”, the normalised inhibition (eCFP-eYFP dual reporter) is 111%.

On to “sense rUrArCrUrGrGrUrGrArArArArUrArUrUrCrCrUdTdT / antisense rArGrGrArArUrArUrUrUrUrCrArCrCrArGrUrAdAdA”, for which the normalised inhibition (eCFP-eYFP dual reporter) is 94.4%.

As for “sense rUrArGrArCrArUrGrGrArArGrGrUrGrCrArCrCdTdT / antisense rGrGrUrGrCrArCrCrUrUrCrCrArUrGrUrCrUrAdCdA”, the normalised inhibition (eCFP-eYFP dual reporter) turned out to be 38.9%.

For “sense rUrArUrCrCrArUrUrCrUrArArCrArGrArArGrAdTdT / antisense rUrCrUrUrCrUrGrUrUrArGrArArUrGrGrArUrAdAdA”, the normalised inhibition (eCFP-eYFP dual reporter) was 83.9%.

For the substance “sense rUrArUrCrUrGrUrUrUrArUrCrCrArUrUrCrUrAdTdT / antisense rUrArGrArArUrGrGrArUrArArArCrArGrArUrAdTdG”, the normalised inhibition (eCFP-eYFP dual reporter) is 85.9%.

In the case of “sense rUrArUrUrCrCrUrGrUrUrCrArUrCrCrUrCrArUdTdT / antisense rArUrGrArGrGrArUrGrArArCrArGrGrArArUrAdTdT”, the normalised inhibition (eCFP-eYFP dual reporter) turned out to be 104%.

With “sense rUrCrArUrCrCrUrCrArUrGrUrUrUrArUrArGrCdTdT / antisense rGrCrUrArUrArArArCrArUrGrArGrGrArUrGrAdAdC”, the normalised inhibition (eCFP-eYFP dual reporter) stood at 78.8%.

Regarding “sense rUrCrCrArArUrCrArGrUrUrUrGrUrCrUrUrArGdTdT / antisense rCrUrArArGrArCrArArArCrUrGrArUrUrGrGrAdCdT”, the normalised inhibition (eCFP-eYFP dual reporter) is 85%.

With “sense rUrCrCrArUrUrCrUrArArCrArGrArArGrArCrUdTdT / antisense rArGrUrCrUrUrCrUrGrUrUrArGrArArUrGrGrAdTdA”, the normalised inhibition (eCFP-eYFP dual reporter) worked out at 64.1%.

For the substance “sense rUrCrCrUrGrUrUrCrArUrCrCrUrCrArUrGrUrUdTdT / antisense rArArCrArUrGrArGrGrArUrGrArArCrArGrGrAdAdT”, the normalised inhibition (eCFP-eYFP dual reporter) turned out to be 108%.

Regarding “sense rUrCrCrUrUrUrUrGrArCrUrCrUrCrCrUrCrArGdTdT / antisense rCrUrGrArGrGrArGrArGrUrCrArArArArGrGrAdTdA”, the normalised inhibition (eCFP-eYFP dual reporter) stood at 78.4%.

Turning to “sense rUrCrGrArUrArUrCrCrUrUrUrUrGrArCrUrCrUdTdT / antisense rArGrArGrUrCrArArArArGrGrArUrArUrCrGrAdCdT”, the normalised inhibition (eCFP-eYFP dual reporter) stood at 74.7%.

For “sense rUrCrUrArArCrArGrArArGrArCrUrGrGrUrCrCdTdT / antisense rGrGrArCrCrArGrUrCrUrUrCrUrGrUrUrArGrAdAdT”, the normalised inhibition (eCFP-eYFP dual reporter) was found to be 73.3%.

In the case of “sense rUrGrArCrCrUrUrArArArUrGrArGrArArGrArGdTdT / antisense rCrUrCrUrUrCrUrCrArUrUrUrArArGrGrUrCrAdTdT”, the normalised inhibition (eCFP-eYFP dual reporter) turned out to be 75%.

As to “sense rUrGrCrArCrCrArGrGrUrArCrCrUrUrArUrArUdTdT / antisense rArUrArUrArArGrGrUrArCrCrUrGrGrUrGrCrAdCdC”, the normalised inhibition (eCFP-eYFP dual reporter) was 78%.

On to “sense rUrGrCrGrArArCrArUrGrUrArArCrArArGrArAdTdT / antisense rUrUrCrUrUrGrUrUrArCrArUrGrUrUrCrGrCrAdCdA”, for which the normalised inhibition (eCFP-eYFP dual reporter) was determined as 104%.

As for “sense rUrGrCrUrUrUrCrCrArGrCrUrGrCrArArGrGrAdTdT / antisense rUrCrCrUrUrGrCrArGrCrUrGrGrArArArGrCrAdTdG”, the normalised inhibition (eCFP-eYFP dual reporter) was determined as 110%.

For “sense rUrGrGrArArUrGrArCrCrUrUrArArArUrGrArGdTdT / antisense rCrUrCrArUrUrUrArArGrGrUrCrArUrUrCrCrAdGdG”, the normalised inhibition (eCFP-eYFP dual reporter) stood at 96.4%.

For the substance “sense rUrGrGrUrGrArArArArUrArUrUrCrCrUrGrUrUdTdT / antisense rArArCrArGrGrArArUrArUrUrUrUrCrArCrCrAdGdT”, the normalised inhibition (eCFP-eYFP dual reporter) worked out at 115%.

On to “sense rUrGrUrUrUrArUrCrCrArUrUrCrUrArArCrArGdTdT / antisense rCrUrGrUrUrArGrArArUrGrGrArUrArArArCrAdGdA”, for which the normalised inhibition (eCFP-eYFP dual reporter) was 66.2%.

As to “sense rUrUrArArArUrUrUrArGrUrArGrUrCrGrArUrAdTdT / antisense rUrArUrCrGrArCrUrArCrUrArArArUrUrUrArAdAdT”, the normalised inhibition (eCFP-eYFP dual reporter) came out at 79.9%.

As to “sense rUrUrArCrArCrArGrUrGrGrArUrUrGrUrArGrAdTdT / antisense rUrCrUrArCrArArUrCrCrArCrUrGrUrGrUrArAdTdT”, the normalised inhibition (eCFP-eYFP dual reporter) is 92.6%.

On to “sense rUrUrCrCrUrGrUrUrCrArUrCrCrUrCrArUrGrUdTdT / antisense rArCrArUrGrArGrGrArUrGrArArCrArGrGrArAdTdA”, for which the normalised inhibition (eCFP-eYFP dual reporter) is 73%.

Take “sense rUrUrUrArArArUrUrUrArGrUrArGrUrCrGrArUdTdT / antisense rArUrCrGrArCrUrArCrUrArArArUrUrUrArArAdTdA”: the normalised inhibition (eCFP-eYFP dual reporter) came out at 88%.

For “sense rUrUrUrArCrUrGrGrUrGrArArArArUrArUrUrCdTdT / antisense rGrArArUrArUrUrUrUrCrArCrCrArGrUrArArAdCdA”, the normalised inhibition (eCFP-eYFP dual reporter) stood at 91.2%.

For the substance “sense rUrUrUrUrGrArCrUrCrUrCrCrUrCrArGrGrUrCdTdT / antisense rGrArCrCrUrGrArGrGrArGrArGrUrCrArArArAdGdG”, the normalised inhibition (eCFP-eYFP dual reporter) is 95%.
